Assay results taken from patent publication US5066676A, “Sulfonamido derivative inhibiting the aldose reductase enzyme system and pharmaceutical compositions containing them” (Laboratori Baldacci SpA, priority 1987, dated 1991).

Legend:
aldose reductase = molecular target: T1, aldose reductase (Bos taurus, UniProt P16116); assay: In vitro inhibition of aldose reductase activity of raw extracts from bovine crystalline lens; format: biochemical; conditions: for IC50: glyceraldehyde substrate, NADPH, pH 6.8, 37° C., read-out: IC50 on the aldose reductase activity of raw extracts originating from bovine crystalline lens; for inhibiting action of the aldose reductase activity (in words): bovine lens extract
T1 construct: 4 bovine crystalline lenses (8 g) are homogenized by means of Potter in ice bath; from tissue; host or cells: bovine crystalline lens
Method: "In vitro" tests have been carried out to evalute the inhibition of the aldose reductase activity, prepared from the extract of bovine crystalline lenses.
PREPARATION OF THE RAW EXTRACTS
4 bovine crystalline lenses (8 g) are homogenized by means of Potter in ice bath with 40 ml of 50 mM phosphate buffer, pH 6.8, containing 2-mercaptoethanol pH ([…]). After centrifugation (12.000×g -20 min-4° C.) the supernatant is brought to 40% saturation with an ammonium sulphate and centrifugated again (14.000×g). The supernatant is then brought to the 80% saturation ((NH4)2 SO4) and, after centrifugation for 20 minutes and at 14.000×g, the sedimented matter is recovered and suspended in 7 ml of phosphate buffer. The enzymatic preparation is dialyzed by ultrafiltration with AMICON ultrafiltration cell.
DOSAGE OF THE ENZYMATIC ACTIVITY
The reference cuvette contains all the several substances apart from the substrate.

[1] = test system: diabetic cataract in the rat; assay: Action on the appearance of the diabetic cataract (rat); format: in vivo; conditions: Table 7, 25 mg/kg/die per os
Method: (§1) With the compound bearing the abbreviation ARI 6 the following tests have been carried out in the rat and in the rabbit.
Action on the appearance of the diabetic cataract (rat).
Effects of the administration of ARI 6 (25 mg/kg/die, per os)
on the appearance of the diabetic cataract in the rat.
The values are expressed as percentages. Within brackets there are indicated the animals for each group.
Effects of the administration of ARI-1 (25 mg/kg/die, per os)

Acute toxicity: mice = conditions: in vivo, mouse (Swiss), read-out: % Death
Method: (§2) The toxicity tests after only one administration have been carried out on two animal species (mice and rats), using two administration routes (os, iv).
For these tests Swiss mice have been used, of both sexes, having average weight 20 g, fasted after 18 hours and administered with water ad libitum. The animals were maintained under standard environment conditions (temperature: 20°-22° C. and moisture 50%).
(§3) The compounds have been administered by gastric probe, suspended in Methocell or by injection (iv) dissolved in physiological solution with the addition of sodium bicarbonate.
(§4) The animals have been kept under observation for 15 days. The controls have been carried out several times in the first days and twice a day in the next days. In the table 1 the conditions used and the results obtained are reported.

[2] = test system: galactosemic cataract in the rat; assay: Action on the appearance of the galactosemic cataract (rat); format: in vivo
Method: as §1
Action on the appearance of the galactosemic cataract (rat)
Effects of the administration of ARI-6 (5 and 25 mg/kg/die, os)
on the appearance of the galactosemic cataract in the rat.
[…] In the brackets the number of animals for each group is indicated.
The diet contains D-galactose 50%.
Effects of the administration of ARI-1 (5 and 25 mg/kg/die, os)

Acute toxicity: rat = conditions: in vivo, rat (Wistar), 20 ml/kg, read-out: % Death
Description: as §2, §3, §4
Wistar rats, of both sexes have been used of average weight of 120 g, fasted after 18 hours and with water at libitum. The conditions of stalling and the administration ways were the same as those reported in the preceeding paragraph (acute toxicity: mouse).

[3] = day 10 from streptozotocine, * p < 0.05 vs controls
[4] = day 15 from streptozotocine, * p < 0.05 vs controls
[5] = day 20 from streptozotocine, * p < 0.05 vs controls
[6] = day 25 from streptozotocine, * p < 0.05 vs controls
[7] = day 30 from streptozotocine, * p < 0.05 vs controls
[8] = day 35 from streptozotocine, * p < 0.05 vs controls
[9] = day 40 from streptozotocine, * p < 0.05 vs controls
[10] = day 45 from streptozotocine, * p < 0.05 vs controls
[11] = day 50 from streptozotocine, * p < 0.05 vs controls
[12] = Table 6, 5 mg/kg/die os, day 5 of diet
[13] = Table 6, 5 mg/kg/die os, day 10 of diet, * p < 0.05 vs controls
[14] = Table 6, 5 mg/kg/die os, day 15 of diet, * p < 0.05 vs controls
[15] = Table 6, 5 mg/kg/die os, day 20 of diet, * p < 0.05 vs controls
[16] = Table 6, 5 mg/kg/die os, day 25 of diet, * p < 0.05 vs controls
[17] = Table 6, 5 mg/kg/die os, day 30 of diet, * p < 0.05 vs controls
[18] = Table 6, 5 mg/kg/die os, day 35 of diet, * p < 0.05 vs controls
[19] = Table 6, 5 mg/kg/die os, day 40 of diet, * p < 0.05 vs controls
[20] = Table 6, 5 mg/kg/die os, day 45 of diet, * p < 0.05 vs controls
[21] = Table 6, 5 mg/kg/die os, day 50 of diet
[22] = Table 6, 25 mg/kg/die os, day 5 of diet
[23] = Table 6, 25 mg/kg/die os, day 10 of diet, * p < 0.05 vs controls
[24] = Table 6, 25 mg/kg/die os, day 15 of diet, * p < 0.05 vs controls
[25] = Table 6, 25 mg/kg/die os, day 20 of diet, * p < 0.05 vs controls
[26] = Table 6, 25 mg/kg/die os, day 25 of diet, * p < 0.05 vs controls
[27] = Table 6, 25 mg/kg/die os, day 30 of diet, * p < 0.05 vs controls
[28] = Table 6, 25 mg/kg/die os, day 35 of diet, * p < 0.05 vs controls
[29] = Table 6, 25 mg/kg/die os, day 40 of diet, * p < 0.05 vs controls
[30] = Table 6, 25 mg/kg/die os, day 45 of diet, * p < 0.05 vs controls
[31] = Table 6, 25 mg/kg/die os, day 50 of diet

Cc1cc(C)c(S(=O)(=O)N(C)CC(=O)O)cc1S(=O)(=O)N(C)CC(=O)O [ARI 1, 4,6-dimethyl-1,3-bis (N-methyl-N-caboxymethl) sulfamoybenzene]
IC50 (aldose reductase): 3600 nM | number of eyes with cataract with respect the total number of observed eyes ([1]; day 5 from streptozotocine): 0/20 | percentage of eyes with cataract ([1]; day 5 from streptozotocine): 0.0% | number of eyes with cataract with respect the total number of observed eyes [1, 3]: 0/20 | percentage of eyes with cataract [1, 3]: 0.0% | number of eyes with cataract with respect the total number of observed eyes [1, 4]: 0/20 | percentage of eyes with cataract [1, 4]: 0.0% | number of eyes with cataract with respect the total number of observed eyes [1, 5]: 0/20 | percentage of eyes with cataract [1, 5]: 0.0% | number of eyes with cataract with respect the total number of observed eyes [1, 6]: 0/20 | percentage of eyes with cataract [1, 6]: 0.0% | number of eyes with cataract with respect the total number of observed eyes [1, 7]: 0/20 | percentage of eyes with cataract [1, 7]: 0.0% | number of eyes with cataract with respect the total number of observed eyes [1, 8]: 0/20 | percentage of eyes with cataract [1, 8]: 0.0% | number of eyes with cataract with respect the total number of observed eyes [1, 9]: 4/20 | percentage of eyes with cataract [1, 9]: 20.0% | number of eyes with cataract with respect the total number of observed eyes [1, 10]: 6/20 | percentage of eyes with cataract [1, 10]: 30.0% | number of eyes with cataract with respect the total number of observed eyes [1, 11]: 20/20 | percentage of eyes with cataract [1, 11]: 100.0% | mortality at 360 h (Acute toxicity: mice; po, 5000 mg/kg/os): 0% | mortality at 360 h (Acute toxicity: mice; 500 mg/kg/iv, 20 ml/kg): 0% | number of eyes with cataract on the total number of observed eyes [2, 12]: 0/20 | percentage of eyes with cataract [2, 12]: 0.0% | number of eyes with cataract on the total number of observed eyes [2, 13]: 0/20 | percentage of eyes with cataract [2, 13]: 0.0% | number of eyes with cataract on the total number of observed eyes [2, 14]: 0/20 | percentage of eyes with cataract [2, 14]: 0.0% | number of eyes with cataract on the total number of observed eyes [2, 15]: 0/20 | percentage of eyes with cataract [2, 15]: 0.0% | number of eyes with cataract on the total number of observed eyes [2, 16]: 3/20 | percentage of eyes with cataract [2, 16]: 15.0% | number of eyes with cataract on the total number of observed eyes [2, 17]: 4/20 | percentage of eyes with cataract [2, 17]: 20.0% | number of eyes with cataract on the total number of observed eyes [2, 18]: 8/20 | percentage of eyes with cataract [2, 18]: 40.0% | number of eyes with cataract on the total number of observed eyes [2, 19]: 8/20 | percentage of eyes with cataract [2, 19]: 100.0% | number of eyes with cataract on the total number of observed eyes [2, 20]: 20/20 | percentage of eyes with cataract [2, 20]: 100.0% | number of eyes with cataract on the total number of observed eyes [2, 21]: 20/20 | percentage of eyes with cataract [2, 21]: 100.0% | number of eyes with cataract on the total number of observed eyes [2, 22]: 0/20 | percentage of eyes with cataract [2, 22]: 0.0% | number of eyes with cataract on the total number of observed eyes [2, 23]: 0/20 | percentage of eyes with cataract [2, 23]: 0.0% | number of eyes with cataract on the total number of observed eyes [2, 24]: 0/20 | percentage of eyes with cataract [2, 24]: 0.0% | number of eyes with cataract on the total number of observed eyes [2, 25]: 0/20 | percentage of eyes with cataract [2, 25]: 0.0% | number of eyes with cataract on the total number of observed eyes [2, 26]: 0/20 | percentage of eyes with cataract [2, 26]: 0.0% | number of eyes with cataract on the total number of observed eyes [2, 27]: 0/20 | percentage of eyes with cataract [2, 27]: 0.0% | number of eyes with cataract on the total number of observed eyes [2, 28]: 0/20 | percentage of eyes with cataract [2, 28]: 0.0% | number of eyes with cataract on the total number of observed eyes [2, 29]: 3/20 | percentage of eyes with cataract [2, 29]: 15.0% | number of eyes with cataract on the total number of observed eyes [2, 30]: 5/20 | percentage of eyes with cataract [2, 30]: 25.0% | number of eyes with cataract on the total number of observed eyes [2, 31]: 20/20 | percentage of eyes with cataract [2, 31]: 100.0% | mortality at 360 h (Acute toxicity: rat; po, 5000 mg/kg/os): 0% | mortality at 360 h (Acute toxicity: rat; 500 mg/kg/iv): 0%

CN(CC(=O)O)S(=O)(=O)c1ccc2oc3ccc(F)cc3c(=O)c2c1 [ARI 8, 7-fluoro-2-(N-methyl-N-carboxymethyl)sulfamoylxanthone]
inhibiting action of the aldose reductase activity (in words) (aldose reductase): higher activity, with respect to the of sorbinil and of ARI 1 | IC50 (aldose reductase): 1000 nM | mortality at 360 h (Acute toxicity: mice; po, 5000 mg/kg/os): 10% | mortality at 360 h (Acute toxicity: mice; 400 mg/kg/iv): 0% | mortality at 360 h (Acute toxicity: rat; po, 5000 mg/kg/os): 30% | mortality at 360 h (Acute toxicity: rat; 500 mg/kg/iv): 40% | mortality at 360 h (Acute toxicity: rat; 400 (unit and route not given)): 0%

CN(CC(=O)O)S(=O)(=O)c1ccc2oc3ccc(S(=O)(=O)N(C)CC(=O)O)cc3c(=O)c2c1 [ARI 9, 2,7-bis (N-methyl-N-carboxymethyl) sulfamoylxanthone]
inhibiting action of the aldose reductase activity (in words) (aldose reductase): higher activity, with respect to the of sorbinil and of ARI 1 | IC50 (aldose reductase): 1000 nM
